Assay results taken from patent US5922730A, “Alkylated rapamycin derivatives” (American Home Products Corporation, priority 1998, dated 1999).
Where “and” joins values, the source holds several entries; their conditions need not be identical. Equal values may be shown once.

Experiments:
[1] = system: thymocyte proliferation (cells from the thymus, PHA and IL-1); assay: comitogen-induced thymocyte proliferation procedure (LAF); format: cell-based, BALB/c mice
Protocol: Briefly, cells from the thymus of normal BAUI/c mioe are cultured for 72 hours with PHA and IL-1 and pulsed with tritiated thymidine during the last six hours. […] Cells are harvested and incorporated; radioactivity is determined. Inhibition of lymphoproliferation is assessed in percent change in counts per minute from nondrug treated controls.

[2] = system: pinch skin graft from male DBA/2 donors transplanted to male BALB/c recipients; assay: pinch skin graft survival; format: in vivo; details: intraperitoneal
Protocol: (§1) Immunosuppressive activity was evaluated in an in vitro standard pharmacological test procedure to measure lymphocyte proliferation (LAF), in an in vivo procedure to evaluate the survival time of a pinch skin graft, and in an in vivo procedure to determine inhibition of T-cell mediated inflammatory response (adjuvant arthritis).
The in vivo test procedure is designed to determine the survival time of pinch skin graft from male DBA/2 donors transplanted to male BALB/c recipients. The method is adapted from Brllingham R. E. and Medawar P. B., J. Exp. Biol. 28:385-402, (1951). Briefly, a pinch skin graft from the donor is grafted on the dorsum of the recipient as a homograft, and an autograft is used as control in the same region. […] Untreated recipients serve as rejection control. The graft is monitored daily and observations are recorded until the graft becomes dry and forms a blackened scab. This is considered as the rjection day. The mean graft survival time (MST -number of days±S.D.) of the drug treatment group is compared with the control group. Rapamycin treatment provides a mean graft survival (MST) of is 12.0±1.7 days.

[3] = system: Freund's Complete Adjuvant (FCA) induced arthritis; assay: adjuvant arthritis standard pharmacological test procedure; format: in vivo, rats (male inbred Wistar Lewis)
Protocol: as §1
The in vivo adjuvant arthritis standard pharmacological test procedure measures the abilty of test compounds to prevent immune mediated inflammation and inhibit or treat rheumatoid arthritis. The following briefly describes the test procedure used. A group of rats (male inbred Wistar Lewis rats) are pre-treated with the compound to be tested (1 h prior to antigen) and then injected with Freund's Complete Adjuvant (FCA) in the right hind paw to induce arthritis. The rats are then orally dosed on a Monday, Wednesday, Friday schedule from day 0-14 for a total of 7 doses. Both hind paws are measured on days 16, 23 and 30. The difference in paw volume (mL) from day 16 to day 0 is determined and a percent change from control is obtained. The left hind paw (uninjected paw) inflammation is caused by T-cell mediated inflammation and is recorded as percent change from control. The right hind paw inflammation, on the other hand, is caused by non-specific inflammation. Compounds were tested at a dose of 2 mg/kg.

[4] = system: breast (T47D) cancer cell line; assay: inhibition of growth of human tumor cells in vitro (Sulforhodaine B); format: cell-based; details: 48 hours exposure
Protocol: (§2) Human tumor cell lines were plated in 96-well plates (250 μL well, 1-6×10^4 cells/mL) in RPMI 1640 medium, containing 5% FBS (Petal Bovine Serum). Twenty-four hours after plating, drugs were added at five log concentrations (0.01-100 μg/mL). After 48 hours exposure to drugs, cells were fixed with trichloroacteic acid, and stained with Sulforhodaine B. After washing with trichloroacetic acid, bound dye was solubilized in 10 mM Tris base and Optical Density was determined using a plate reader. Under conditions of the assay, the optical density is proportional to the number of cells in the well. IC50 s (concentrations causing 50% inhibition of cell growth) were determined from the growth inhibition plots. The assay is described in details by Philip Skehan et al., J. National Cancer Institute 82, 1107-1112, 1990.

[5] = system: colon (MIP 101) cancer cell line; assay: as above; format: cell-based; details: MIP 101, 48 hours exposure
Protocol: as §2

[6] = system: ovarian (A 2780S) cancer cell line; assay: as above; format: cell-based; details: 48 hours exposure
Protocol: as §2

Candida albicans = details: particularly against Candida albicans, in vitro and in vivo; cited from earlier work
[7] = system: experimental allergic encephalomyelitis model; details: model for multiple sclerosis; cited from earlier work
[8] = system: formation of IgE-like antibodies; details: in vivo; cited from earlier work

Molecule	IC50 ([1]; LAF, PHA and IL-1, 72 hours, read-out: IC50 analog)	R/A (ratio of the ID50s of rapamycin to the analog) ([1]; ratio less than 1.0 means the analog is less potent than rapamycin)	Skin Graft MST ± S.D. (mean graft survival time) [2]	Adjuvant Arthritis % Change (uninjected paw at day 16 versus control) ([3]; 2 mg/kg, oral, more negative = more potent)	inhibition of cancer cell line growth [4]	inhibition of cancer cell line growth [5]	inhibition of cancer cell line growth [6]	immune-induced inflammation less than control rats ([3]; rapamycin treated rats versus control rats)	antifungal activity (Candida albicans)	effect in experimental allergic encephalomyelitis model [7]	inhibition of formation of IgE-like antibodies [8]
29-O-Benzylrapamycin [Example 1]	4.2 nM	0.12	7.2 days								
COCCOCCOCCO[C@@H]1CC[C@@H](C[C@@H](C)[C@@H]2CC(=O)[C@H](C)/C=C(\C)[C@@H](O)[C@@H](OC)C(=O)[C@H](C)C[C@H](C)/C=C/C=C/C=C(\C)[C@@H](OC)C[C@@H]3CC[C@@H](C)[C@@](O)(O3)C(=O)C(=O)N3CCCC[C@H]3C(=O)O2)C[C@H]1OC [Example 3, 42-O-(2-[2-(2-methoxyethoxy)-ethoxy]-ethyl)-rapamycin]			9.8 days and 9.7 days	-88%	submicromolar concentrations	submicromolar concentrations	submicromolar concentrations				
CO[C@H]1C[C@@H]2CC[C@@H](C)[C@@](O)(O2)C(=O)C(=O)N2CCCC[C@H]2C(=O)O[C@H]([C@H](C)C[C@@H]2CC[C@@H](O)[C@H](OC)C2)CC(=O)[C@H](C)/C=C(\C)[C@@H](O)[C@@H](OC)C(=O)[C@H](C)C[C@H](C)/C=C/C=C/C=C/1C [rapamycin]			12.0 ± 1.7 days					70-90%	antifungal activity	effective	effectively inhibited
